Test results reported in US9365598B2, “Phosphine derivatives of fluorescent compounds” (Pierce Biotechnology, Inc., priority 2011, dated 2016).

What was measured:
[1] = Thermal stress stability of the compounds, purity by HPLC before and after storage; format: physicochemical; conditions: unit size 1 mg; for Purity Before thermal stress: packed under argon, HPLC before storage; for Purity After thermal stress: under argon, stored at 50° C. for 14 days, HPLC
Procedure: The inventive compounds were evaluated for stability compared to commercial dyes. All compounds were packed under argon as 1 mg portions in plastic vials. The vials were sealed under argon with a drying pad in an aluminium coated pouch, and then stored at 50° C. for 14 days. The results of the stability study for selected compounds are shown below where the determination of purity was by HPLC before and after storage.

mouse IgG immunoglobulin = assay: Functional plate assay of compound-PEG4-GAM conjugates (RFU); format: binding; conditions: conjugates at 4 μg/ml on mouse IgG coated plates; FIGS. 13-14
Procedure: Performance of compound-GAM conjugates and compound-GAR conjugates was evaluated in a functional assay. Wells of a 96 white opaque plate were coated with target proteins mouse IgG immunoglobulin or rabbit IgG immunoglobulin. One hundred μl mouse or rabbit IgG at a concentration of 10 μg/ml was applied to the corresponding wells in columns 1 and 2. The target proteins were serially diluted 1:1 from the wells in columns 2 to 11 using 100 μl PBS. One hundred μl of samples from the wells in column 11 were discarded. One hundred μl PBS was added to the wells in column 12. The plates were incubated overnight at 4° C. and then blocked 2×200 μl with Thermo Scientific SuperBlock® Blocking Buffer. […] The plates were washed with 2×200 μl with PBS-Tween and 1×200 μl with PBS and filled with PBS buffer (100 μl/well) prior to scanning on Tecan Safire using 562 nmexcitation/576 nmemission to detect fluorescence intensity and DyLight 649 and DyLight 650 plated were measured using 654 nmexcitation/673 nmemission.
As shown in FIGS. 13-14, the fluorescence intensity, also termed the RFU, was compared for compound-PEG4-GAM conjugates where the compound was DyLight 549-phosphine (blue; FIG. 13), 550 Compound 1-phosphine (red; FIG. 13), DyLight 649-phosphine (red; FIG. 14) and 650 Compound 1-phosphine (blue; FIG. 14) at various concentrations. […]

A549 cell lysate = A549 cell lysate labeling with azido-sugars, SDS-PAGE; format: cell-based, human
Procedure: The inventive and commercial compounds were examined in A549 cell lysate labeling experiments using azido-sugars. Cell extracts were prepared from A549 incubated with azido-sugar N-azidoacetylgalactosamine […], N-azidoacetylglucosamine (GlcNAz) or N-azidoacetylmannosamine […]. The cell extracts were incubated with either 550 Compound 1-phosphine, 650 Compound 1-phosphine, CLICK-iT® Alexa555-Alkyne, or CLICK-iT® Alexa Fluor 647 DIBO Alkyne and analyzed by SDS-PAGE. The resulting lysates were separated by electrophoresis. 10 μg protein was loaded onto a PAGE gel (4-12% Bis-Tris gel).
The resulting lysates were separated by electrophoresis. […]
FIGS. 63-64 graphically represent band intensity of FIGS. 61-62. […] Relative fluorescence intensity for the gel image of FIG. 61 comparing Alexa555 (copper) and 550 Compound 1-phosphine (FIG. 63) and for the gel image of FIG. 62 comparing Alexa647 (copper-less) and 650 Compound 1-phosphine (FIG. 64).

A549 cells = assay: Azido-sugar cell labeling, A549 cells; format: cell-based, human; conditions: N-azidoacetyl galactosamine, 100 μM dye-phosphine 3 h 37° C.
Source text: (§1) The inventive and commercial compounds were examined in cell labeling experiments using azido-sugars and adenocarcinomic human alveolar basal epithelial (A549) cells, human osteosarcoma (U2OS) cells, and immortalized proximal tubule epithelial (HK2) cells. As is known in the art, introduction of labeled sugar moieties results in incorporation of the labeled sugar moieties in various cellular molecules and locations.
Metabolically incorporated azido-labeled sugars, N-azidoacetyl galactosamine, N-azidoacetyl glucosamine, and N-azidoacetyl mannosamine was detected in vivo. Cells were incubated with 40 μM azido-sugar in cell culture media for 72 hours and the live cells were incubated with 100 μM of dye-labeled phosphine. The cells were then washed, fixed with 4% paraformaldehyde and counterstained with Hoechst 33342 which labels nuclei. For fixed cells, the cells were incubated with the azido-sugar, fixed with 4% paraformaldehyde, permeabilized with 0.1% Triton X-100, and incubated with 100 μM of dye-labeled phosphine. […]
Fluorescence intensity was measured in each spot identified using a specific Bio-Application with the ArrayScanVTI image analysis software. […]

U2OS cells = assay: Azido-sugar cell labeling, U2OS cells; format: cell-based, human; conditions: 100 μM dye-phosphine
Source text: as §1
Metabolically incorporated azido-labeled sugars, N-azidoacetyl galactosamine, N-azidoacetyl glucosamine, and N-azidoacetyl mannosamine was detected in vivo. Cells were incubated with 40 μM azido-sugar in cell culture media for 72 hours and the live cells were incubated with 100 μM of dye-labeled phosphine. The cells were then washed, fixed with 4% paraformaldehyde and counterstained with Hoechst 33342 which labels nuclei. For fixed cells, the cells were incubated with the azido-sugar, fixed with 4% paraformaldehyde, permeabilized with 0.1% Triton X-100, and incubated with 100 μM of dye-labeled phosphine. In live cell labeling using the phosphine labeling reaction used 100 μM of the dye-labeled phosphine for three hours at 37° C., and the CLICK-iT® labeling reaction, using DIBO-Alexa dye, used 30 μM of the DIBO Alexa dye for one hour at room temperature (RT). […]

HK2 cells = assay: Azido-sugar cell labeling, HK2 cells; format: cell-based; conditions: 100 μM dye-phosphine
Source text: as §1
Metabolically incorporated azido-labeled sugars, N-azidoacetyl galactosamine, N-azidoacetyl glucosamine, and N-azidoacetyl mannosamine was detected in vivo. Cells were incubated with 40 μM azido-sugar in cell culture media for 72 hours and the live cells were incubated with 100 μM of dye-labeled phosphine. The cells were then washed, fixed with 4% paraformaldehyde and counterstained with Hoechst 33342 which labels nuclei. For fixed cells, the cells were incubated with the azido-sugar, fixed with 4% paraformaldehyde, permeabilized with 0.1% Triton X-100, and incubated with 100 μM of dye-labeled phosphine. In live cell labeling using the phosphine labeling reaction used 100 μM of the dye-labeled phosphine for three hours at 37° C., and the CLICK-iT® labeling reaction, using DIBO-Alexa dye, used 30 μM of the DIBO Alexa dye for one hour at room temperature (RT). In fixed cell labeling, the phosphine labeling reaction used 100 μM of the dye-labeled phosphine for three hours at 37° C., and the CLICK-IT® labeling reaction, using DIBO-Alexa dye, used 50 μM of the DIBO Alexa dye for one hour at RT in the presence of 5 μM copper for one hour at RT in the absence of copper.
HK2 cells, either live (column A) or fixed (column B), were labeled with N-azidoacetyl galactosamine followed by labeling with 550 Compound 1-phosphine (row 1), 650 Compound 1-phosphine (row 2), or Copperless CLICK-iT® using DIBO-Alexa647 (row 3), as shown in FIG. 52. A graphical representation of the spot average intensity for the images of FIG. 52 is shown for labeling live (FIG. 53) and fixed (FIG. 54) cells. […]

[2] = system: secretory vesicles in HK2, A549, and U2OS cells; assay: Secretory vesicle labeling with Az-ManNAc; format: cell-based; conditions: N-azidoacetyl mannosamine; co-localized with PGP9.5
Source text: The inventive and commercial compounds were used to label secretory vesicles in various cell types using azido-sugars. […] Co-localization of Man-650 Compound 1-phosphine, and this labeling was co-localized with PGP9.5, a secreted protein, as shown in FIGS. 65B and 66B (red arrows).

In the case of “2-((1E,3E)-3-(1-(6-(2-(3-(diphenylphosphino)-4-(methoxycarbonyl)benzamido)ethylamino)-6-oxohexyl)-3-methyl-5-sulfonato-3-(3-sulfonatopropyl)indolin-2-ylidene)prop-1-enyl)-1-(2-methoxyethyl)-3-methyl-3-(3-sulfonatopropyl)-3H-indolium-5-sulfonate [550 Compound 1-phosphine]”, the “Purity Before thermal stress” value [1] is reported as 96%, the “Purity After thermal stress” value [1] is reported as 96% and the “fluorescence intensity (RFU) of compound-PEG4-GAM conjugates compared with DyLight 549 / DyLight 649 conjugate” value (mouse IgG immunoglobulin) is reported as “similar”. The “band intensity of labeled lysate versus CLICK-iT Alexa 555-alkyne” value (A549 cell lysate; A549 lysates, three azido-sugars, 10 μg protein per lane, FIG. 63) was “better than CLICK-iT® Alexa 555-alkyne”.

In the case of “2-((1E,3E,5E)-5-(1-(6-(2-(3-(diphenylphosphino)-4-(methoxycarbonyl)benzamido)ethylamino)-6-oxohexyl)-3-methyl-5-sulfonato-3-(3-sulfonatopropyl)indolin-2-ylidene)penta-1,3-dienyl)-1-(2-methoxyethyl)-3-methyl-3-(3-sulfonatopropyl)-3H-indolium-5-sulfonate [650 Compound 1-phosphine]”, the “Purity Before thermal stress” value [1] is reported as 97%, the “Purity After thermal stress” value [1] is reported as 96% and the “fluorescence intensity (RFU) of compound-PEG4-GAM conjugates compared with DyLight 549 / DyLight 649 conjugate” value (mouse IgG immunoglobulin) is reported as “similar”. For the same substance, the “live cell labeling (spot average intensity) versus Alexa647-DIBO CLICK-iT” value (A549 cells) was “better than Alexa647-DIBO CLICK-iT® labeling”, the “live cell labeling (spot average intensity) versus Alexa647-DIBO CLICK-iT” value (U2OS cells; N-azidoacetyl glucosamine) was “better than Alexa647-DIBO CLICK-iT® labeling” and the “live cell labeling (spot average intensity) versus Alexa647-DIBO CLICK-iT” value (U2OS cells; N-azidoacetyl mannosamine) was “better than Alexa647-DIBO CLICK-iT® labeling”. For the same substance, the “live cell labeling (spot average intensity) versus Alexa647-DIBO CLICK-iT” value (HK2 cells; N-azidoacetyl galactosamine) was “better than Alexa647-DIBO CLICK-iT® labeling”, the “live cell labeling (spot average intensity) versus Alexa647-DIBO CLICK-iT” value (HK2 cells; N-azidoacetyl glucosamine) was “better than Alexa647-DI BO CLICK-iT® labeling” and the “live cell labeling (spot average intensity) versus Alexa647-DIBO CLICK-iT” value (HK2 cells; N-azidoacetyl mannosamine) was “better than Alexa647-DIBO CLICK-iT® labeling”. The “labeling pattern of lysate on gel” value (A549 cell lysate; A549 lysates with Az-GalNAc, Az-GlcNAc or Az-ManNAc, FIG. 62) was “different labeling pattern for each of the three incorporated azido-sugars” and the secretory vesicle labeling [2] was “resulted in labeling of secretory vesicles”.
